These results are taken from ChEMBL document CHEMBL3045177, “The effect of ascorbic acid supplementation on brain oxidative events in experimental diabetes” (Med Chem Res, 2010).

For series [1], the system named is Rattus norvegicus. The series is described as follows: Neurotoxicity in Rattus norvegicus Wistar albino (rat) assessed as increase in brain glutathione level measured per gram of tissue at 20 mg/kg, administered as intragastrically after 21 days by Ellman's method (reference value: 3.5 +/- 1.0 umol). Format: toxicity, organism-based. Further details: dose 20 mg/kg, route intragastric. The note with it: in vivo, po, 504 h.

Series [2] has as its system Rattus norvegicus. The series is described as follows: Neuroprotective activity in streptozotocin-induced Rattus norvegicus Wistar albino (rat) diabetic model assessed as increase in brain ascorbic acid level measured per gram of tissue at 20 mg/kg, administered as intragastrically after 21 days by spectrphotometric analysis (reference value: 3.7 +/- 0.4 mg). The format is functional. Conditions: route intragastric.

In series [3] the test system is Rattus norvegicus. The series is described as follows: Neurotoxicity in Rattus norvegicus Wistar albino (rat) assessed as increase in brain ascorbic acid level measured per gram of tissue at 20 mg/kg, administered as intragastrically after 21 days by spectrphotometric analysis (reference value: 3.7 +/- 0.7 mg). The note with it: in vivo, po, 504 h. The format is toxicity, organism-based. Further details: dose 20 mg/kg, route intragastric.

Series [4] concerns Rattus norvegicus. The experiment in a line: Neurotoxicity in Rattus norvegicus Wistar albino (rat) assessed as increase in brain malondialdehyde level measured per gram of tissue at 20 mg/kg, administered as intragastrically after 21 days by TBARS assay (reference value: 233.9 +/- 48.6 nmol). Set-up: dose 20 mg/kg, route intragastric. The format is toxicity, organism-based. Conditions: in vivo, po, 504 h.

The subject of series [5] is Rattus norvegicus. The experiment in a line: Neuroprotective activity in streptozotocin-induced Rattus norvegicus Wistar albino (rat) diabetic model assessed as increase in brain glutathione level measured per gram of tissue at 20 mg/kg, administered as intragastrically after 21 days by Ellman's method (reference value: 3 +/- 0.5 umol). Format: functional. The note with it: route intragastric.

Series [6] relates to Rattus norvegicus. The experiment in a line: Neuroprotective activity in streptozotocin-induced Rattus norvegicus Wistar albino (rat) diabetic model assessed as decrease in brain malondialdehyde level measured per gram of tissue at 20 mg/kg, administered as intragastrically after 21 days by TBARS assay (reference value: 447 +/- 61.9 nmol). Format: functional. The note with it: route intragastric.

The test system of series [7] is Rattus norvegicus. The series is described as follows: Neurotoxicity in Rattus norvegicus Wistar albino (rat) assessed as increase in brain total nitric oxide level measured per gram of tissue at 20 mg/kg, administered as intragastrically after 21 days by Griess assay (reference value: 144.8 +/- 16.3 umol). Conditions: in vivo, po, 504 h. Further details: dose 20 mg/kg, route intragastric. Format: toxicity, organism-based. Background: Nitrite, measured by Griess reagent, commonly stands in for NO production.

Series [8] has as its system Rattus norvegicus. The series is described as follows: Neuroprotective activity in streptozotocin-induced Rattus norvegicus Wistar albino (rat) diabetic model assessed as increase in brain total nitric oxide level measured per gram of tissue at 20 mg/kg, administered as intragastrically after 21 days by Griess assay (reference value: 100.6 +/- 10.7 umol). Format: functional. The note with it: route intragastric.

Consider `O=C1O[C@H]([C@@H](O)CO)C(O)=C1O` [ASCORBIC ACID], for which the Activity in series [1] worked out at 5.4 µmol; in series [2], 4.26 mg; in series [3], 5.2 mg; in series [4], 249.2 nmol; in series [5], 3.1 µmol; in series [6] it was 204.2 nmol. For the same compound, the Activity in series [7] came to 115.2 µmol; in series [8], 146.1 µmol.
